The values that follow come from US10550165B2, “Peptide for inducing regeneration of tissue and use thereof” (STEMRIM INC., priority 2011, dated 2020).

The test system of the first experiment is mouse bone marrow mesenchymal stem cell line (MSC-1 cells), PDGFRα-positive. Kind of experiment: Migration assay (Boyden / 48-well chemotaxis chamber) on bone marrow mesenchymal stem cell line MSC-1. The experiment is classed as cell-based. The following applies: peptides produced using HEK293, concentration not stated. The procedure: Cells of a mouse bone marrow mesenchymal stem cell line (MSC-1 cells, established by Tamai et al. of Osaka University (PDGFRα-positive cells in bone marrow are mobilized by high mobility group box 1 (HMGB1) to regenerate injured epithelia. (Tamai et al., Proc Natl Acad Sci USA. Apr. 4, 2011))) were detached from dishes using trypsin, and collected by centrifugation at 1200 rpm and 4° C. for 10 minutes. The resulting pellet was loosened and suspended at a cell concentration of 2.0×10^6 to 3.0×10^6 cells/ml by adding Dulbecco's Modified Eagle Medium (D-MEM) containing 10% fetal bovine serum (FBS). The recombinant protein and peptides produced in HEK293 were diluted with D-MEM containing 10% FBS. The negative control used was phosphate buffered saline (PBS). An acrylic Boyden chamber was used; cells of the mouse bone marrow mesenchymal stem cell line prepared at a cell concentration of 3×10^6 cells/ml were placed in its upper layer, while a diluted protein or peptide is added to the bottom layer. More specifically, a 28 μl aliquot of a protein or peptide solution was added to each well of the bottom plate of a 48-well chemotaxis chamber (NEURO PROBE 48WELL CHEMOTAXIS CHAMBER), and a polycarbonate membrane with 8 μm pores (Neuro Probe, Inc, Cat: 866-417-0014) was placed on the bottom plate. Then, an upper plate was placed on the membrane and screwed tightly. 50 μl of cells of the mouse bone marrow mesenchymal stem cell line after concentration adjustment were added to the upper plate wells. The chamber was placed in an incubator under 5% CO2 at 37° C. After four hours, the membrane was removed from the chamber and stained with Diff-Quik (Sysmex, Cat: 16920) to detect cells that migrated through membrane pores to the lower compartment.
The peptides listed below were custom synthesized using the solid phase method by Medical & Biological Laboratories (MBL). The peptides were synthesized based on the mouse HMGB1 sequence (SEQ ID NO: 3). Synthetic peptides described in subsequent Examples were also prepared based on the mouse HMGB1 sequence. • A synthetic peptide consisting of the amino acid sequence from positions 1 to 10 of HMGB1 (1-10); • a synthetic peptide consisting of the amino acid sequence from positions 1 to 34 of HMGB1 (1-34); • a synthetic peptide consisting of the amino acid sequence from positions 37 to 62 of HMGB1 (37-62); • a synthetic peptide consisting of the amino acid sequence from positions 27 to 62 of HMGB1 (27-62); • a synthetic peptide consisting of the amino acid sequence from positions 56 to 72 of HMGB1 (56-72); • a synthetic peptide consisting of the amino acid sequence from positions 11 to 20 of HMGB1 (11-20); • a synthetic peptide consisting of the amino acid sequence from positions 11 to 25 of HMGB1 (11-25); • a synthetic peptide consisting of the amino acid sequence from positions 11 to 30 of HMGB1 (11-30); • a synthetic peptide consisting of the amino acid sequence from positions 11 to 34 of HMGB1 (11-34); • a synthetic peptide consisting of the amino acid sequence from positions 11 to 44 of HMGB1 (11-44); • a synthetic peptide consisting of the amino acid sequence from positions 17 to 44 of HMGB1 (17-44); • a synthetic peptide consisting of the amino acid sequence from positions 1 to 25 of HMGB1 (1-25); and the whole mouse HMGB1 produced in HEK293 (1-215(HEK)) as a positive control were adjusted to 100 μg/ml and placed in the lower layer of a chemotaxis chamber to assess the migration-promoting activity on bone marrow mesenchymal stem cell line (MSC-1). Results
As positive controls, centrifuged supernatant of the skin of a one-day-old mouse (one individual) incubated in PBS at 4° C. for 12 hours, and the whole mouse HMGB1 (HMGB1(HEK_1-215)) produced in HEK293 were used. […]
Take “1-47: peptide comprising the amino acid sequence of positions 1 to 47, produced using HEK293 (MGKGDPKKPRGKMSSYAFFVQTCREEHKKKHPDASVNFSEFSKKCSE; UniProt P63158 1-47, looked up, fragment)”: the “activity of promoting the migration of MSC-1” value (“activity … of MSC-1” below) is “showed the activity of promoting the migration of bone marrow mesenchymal stem line MSC-1”.

In the case of “1-51: peptide comprising the amino acid sequence of positions 1 to 51, produced using HEK293 (MGKGDPKKPRGKMSSYAFFVQTCREEHKKKHPDASVNFSEFSKKCSERWKT; UniProt P09429 1-51, looked up, fragment)”, the “activity … of MSC-1” value is given as “showed the activity of promoting the migration of bone marrow mesenchymal stem line MSC-1”. In the case of “1-52: peptide comprising the amino acid sequence of positions 1 to 52, produced using HEK293 (MGKGDPKKPRGKMSSYAFFVQTCREEHKKKHPDASVNFSEFSKKCSERWKTM; UniProt P09429 1-52, looked up, fragment)”, the “activity … of MSC-1” value is given as “showed the activity of promoting the migration of bone marrow mesenchymal stem line MSC-1”. The same measure, in the same setting: for “1-46: peptide comprising the amino acid sequence of positions 1 to 46, produced using HEK293 (MGKGDPKKPRGKMSSYAFFVQTCREEHKKKHPDASVNFSEFSKKCS; UniProt P63158 1-46, looked up, fragment)” the value was “showed the activity of promoting the migration of bone marrow mesenchymal stem line MSC-1”; for “1-43: peptide comprising the amino acid sequence of positions 1 to 43, produced using HEK293 (MGKGDPKKPRGKMSSYAFFVQTCREEHKKKHPDASVNFSEFSK; UniProt P09429 1-43, looked up, fragment)”, “showed the activity of promoting the migration of bone marrow mesenchymal stem line MSC-1”. The same measure, in the same setting: for “1-49: peptide comprising the amino acid sequence of positions 1 to 49, produced using HEK293 (MGKGDPKKPRGKMSSYAFFVQTCREEHKKKHPDASVNFSEFSKKCSERW; UniProt P09429 1-49, looked up, fragment)” the value was “showed the activity of promoting the migration of bone marrow mesenchymal stem line MSC-1”. For the substance “1-48: peptide comprising the amino acid sequence of positions 1 to 48, produced using HEK293 (MGKGDPKKPRGKMSSYAFFVQTCREEHKKKHPDASVNFSEFSKKCSER; UniProt P09429 1-48, looked up, fragment)”, the “activity … of MSC-1” value is given as “showed the activity of promoting the migration of bone marrow mesenchymal stem line MSC-1”.

The same experiment, now with this note: synthetic peptides, 5 μM, FIGS. 8A and 8B.
Regarding “(11-27): synthetic peptide consisting of the amino acid sequence from positions 11 to 27 of HMGB1 (GKMSSYAFFVQTCREEH; UniProt P09429 11-27, looked up, fragment)”, the migration-promoting activity entry is reported as “strong migration-promoting activity”.

Turning to “(11-29): synthetic peptide consisting of the amino acid sequence from positions 11 to 29 of HMGB1 (GKMSSYAFFVQTCREEHKK; UniProt P09429 11-29, looked up, fragment)”, the migration-promoting activity entry is given as “strong migration-promoting activity”. As for “(13-25): synthetic peptide consisting of the amino acid sequence from positions 13 to 25 of HMGB1 (MSSYAFFVQTCRE; UniProt P09429 13-25, looked up, fragment)”, the migration-promoting activity entry was “weak activity”. Still for that read-out and setting: for “(10-25): synthetic peptide consisting of the amino acid sequence from positions 10 to 25 of HMGB1 (RGKMSSYAFFVQTCRE; UniProt P09429 10-25, looked up, fragment)” the value was “strong migration-promoting activity”; for “(15-30): synthetic peptide consisting of the amino acid sequence from positions 15 to 30 of HMGB1 (SYAFFVQTCREEHKKK; UniProt P09429 15-30, looked up, fragment)”, “weak activity”.

Take “(14-30): synthetic peptide consisting of the amino acid sequence from positions 14 to 30 of HMGB1 (SSYAFFVQTCREEHKKK; UniProt P09429 14-30, looked up, fragment)”: the migration-promoting activity result was “strong migration-promoting activity”. Turning to “(12-30): synthetic peptide consisting of the amino acid sequence from positions 12 to 30 of HMGB1 (KMSSYAFFVQTCREEHKKK; UniProt P09429 12-30, looked up, fragment)”, the migration-promoting activity result is recorded as “strong migration-promoting activity”. In the case of “(16-25): synthetic peptide consisting of the amino acid sequence from positions 16 to 25 of HMGB1 (YAFFVQTCRE; UniProt P09429 16-25, looked up, fragment)”, the migration-promoting activity entry is “weak activity”. The same measure, in the same setting: the same measure for “(15-25): synthetic peptide consisting of the amino acid sequence from positions 15 to 25 of HMGB1 (SYAFFVQTCRE; UniProt P09429 15-25, looked up, fragment)”: “weak activity”.

Staying with this experiment, now noted: synthetic peptides, 10 μM and 5 μM, FIG. 9.
On to “(45-74): synthetic peptide consisting of the amino acids of positions 45 to 74 (CSERWKTMSAKEKGKFEDMAKADKARYERE; UniProt P09429 45-74, looked up, fragment)”, for which the migration-promoting activity entry was “exhibited migration-promoting activity which was however weaker as compared to synthetic peptides (1-44) and (1-34)”. As for “(55-84): synthetic peptide consisting of the amino acids of positions 55 to 84 (KEKGKFEDMAKADKARYEREMKTYIPPKGE; UniProt P09429 55-84, looked up, fragment)”, the migration-promoting activity entry was “exhibited migration-promoting activity which was however weaker as compared to synthetic peptides (1-44) and (1-34)”.

The experiment is the same for the next values; noted with them: synthetic peptides, 100 μg/ml, positive control 1-215(HEK), FIG. 7.
For the substance “(11-44): synthetic peptide consisting of the amino acid sequence from positions 11 to 44 of HMGB1 (GKMSSYAFFVQTCREEHKKKHPDASVNFSEFSKK; UniProt P09429 11-44, looked up, fragment)”, the migration-promoting activity result was “activity comparable to or higher than that of the positive control”.

With “(1-25): synthetic peptide consisting of the amino acid sequence from positions 1 to 25 of HMGB1 (MGKGDPKKPRGKMSSYAFFVQTCRE; UniProt P09429 1-25, looked up, fragment)”, the migration-promoting activity result is “found to have the activity”. As to “(11-30): synthetic peptide consisting of the amino acid sequence from positions 11 to 30 of HMGB1 (GKMSSYAFFVQTCREEHKKK; UniProt P09429 11-30, looked up, fragment)”, the migration-promoting activity entry was “activity comparable to or higher than that of the positive control”.
